{"source": "the Kinase Knowledgebase extract (Sharma et al. 2016)", "note": "pIC50: −log10 of the molar value."}
{"biological_target": "MAPK14 (human) (UniProt Q16539)", "sequence (Q16539 whole entry, looked up)": "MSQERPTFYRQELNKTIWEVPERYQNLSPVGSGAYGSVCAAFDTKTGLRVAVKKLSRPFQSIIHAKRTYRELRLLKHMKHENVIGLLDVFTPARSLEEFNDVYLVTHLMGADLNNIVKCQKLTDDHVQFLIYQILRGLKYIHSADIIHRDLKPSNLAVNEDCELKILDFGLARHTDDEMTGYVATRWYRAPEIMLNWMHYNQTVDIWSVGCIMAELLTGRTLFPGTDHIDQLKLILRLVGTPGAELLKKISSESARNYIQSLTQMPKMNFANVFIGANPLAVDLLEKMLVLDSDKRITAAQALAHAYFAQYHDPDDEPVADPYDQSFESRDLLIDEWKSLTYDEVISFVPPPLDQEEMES", "test": "Cell-Based Assay", "conditions": "hct-116"}
{"compound": "Nc1ncc(-c2cnn(C3CNC3)c2)c2cc(-c3csc4cnccc34)oc12", "pIC50": "6.00 to 7.00"}
{"compound": "CS(=O)(=O)N1CCC(n2cc(-c3cnc(N)c4oc(-c5cccc6cnccc56)cc34)cn2)CC1", "pIC50": "6.00 to 7.00"}
{"compound": "CC(=O)N1CCC(n2cc(-c3cnc(N)c4oc(-c5cccc([N+](=O)[O-])c5)cc34)cn2)CC1", "pIC50": "6.00 to 7.00"}
{"compound": "Nc1ncc(-c2cnn(C3CC4(C3)OCCO4)c2)c2cc(-c3csc4cnccc34)oc12", "pIC50": "6.00 to 7.00"}
{"compound": "CCN1CCC(n2cc(-c3cnc(N)c4oc(-c5cccc6cnccc56)cc34)cn2)CC1", "pIC50": "6.00 to 7.00"}
{"compound": "CC(=O)N1CCC(n2cc(-c3cnc(N)c4oc(-c5cccc(OCC#N)c5)cc34)cn2)CC1", "pIC50": "6.00 to 7.00"}
{"compound": "CC(=O)N1CCC(n2cc(-c3cnc(N)c4oc(-c5ccc6c(c5)CCO6)cc34)cn2)CC1", "pIC50": "≥ 7.00"}
{"compound": "CC(=O)N1CCC(n2cc(-c3cnc(N)c4oc(-c5cccc(C#N)c5)cc34)cn2)CC1", "pIC50": "6.00 to 7.00"}
{"compound": "CC(=O)N1CCC(n2cc(-c3cnc(N)c4oc(-c5ccc(O)cc5C)cc34)cn2)CC1", "pIC50": "6.00 to 7.00"}
{"compound": "CC(C)N1CCC(n2cc(-c3cnc(N)c4oc(-c5cccc6cnccc56)cc34)cn2)CC1", "pIC50": "6.00 to 7.00"}
{"compound": "Nc1ncc(-c2cnn(C3CCN(C(=O)C4CC4)CC3)c2)c2cc(-c3cccc4cnccc34)oc12", "pIC50": "6.00 to 7.00"}
{"compound": "Nc1ncc(-c2cnn(C3CCN(C(=O)C4CCC4)CC3)c2)c2cc(-c3cccc4cnccc34)oc12", "pIC50": "6.00 to 7.00"}
{"compound": "CC(=O)N1CCC(n2cc(-c3cnc(N)c4oc(-c5ccccc5CC#N)cc34)cn2)CC1", "pIC50": "6.00 to 7.00"}
{"compound": "CC(=O)N1CCC(n2cc(-c3cnc(N)c4oc(-c5cccc6cnccc56)cc34)cn2)CC1", "pIC50": "6.00 to 7.00"}
{"compound": "Nc1ncc(-c2cnn([C@H]3CC[C@H](O)CC3)c2)c2cc(-c3csc4cnc(F)cc34)oc12", "pIC50": "≥ 7.00"}
{"compound": "Nc1ncc(-c2cnn(C3CC(=O)C3)c2)c2cc(-c3csc4cnccc34)oc12", "pIC50": "6.00 to 7.00"}
{"compound": "CC(=O)N1CCC(n2cc(-c3cnc(N)c4oc(-c5cccc6c5OC(F)(F)O6)cc34)cn2)CC1", "pIC50": "6.00 to 7.00"}
{"compound": "Nc1ncc(-c2cnn(C3CCN(CCO)CC3)c2)c2cc(-c3cccc4cnccc34)oc12", "pIC50": "6.00 to 7.00"}
{"compound": "Nc1ncc(-c2cnn(C3CCCCC3)c2)c2cc(-c3c[nH]c4cnccc34)oc12", "pIC50": "6.00 to 7.00"}
{"compound": "CC(=O)N1CCC(n2cc(-c3cnc(N)c4oc(-c5cccc6ccnn56)cc34)cn2)CC1", "pIC50": "6.00 to 7.00"}
{"compound": "Nc1ncc(-c2cnn([C@H]3CC[C@H](O)CC3)c2)c2cc(-c3csc4cnccc34)oc12", "pIC50": "≥ 7.00"}
{"compound": "CC(=O)N1CCC(n2cc(-c3cnc(N)c4oc(-c5cnn(Cc6cccnc6)c5)cc34)cn2)CC1", "pIC50": "< 5.00"}
{"compound": "CC(=O)N1CCC(n2cc(-c3cnc(N)c4oc(-c5csc6cnccc56)cc34)cn2)CC1", "pIC50": "6.00 to 7.00"}
{"compound": "CC(=O)N1CCC(n2cc(-c3cnc(N)c4oc(-c5ccc6[nH]nc(C#N)c6c5)cc34)cn2)CC1", "pIC50": "< 5.00"}
{"compound": "CC(=O)N1CCC(n2cc(-c3cnc(N)c4oc(-c5ccc6scnc6c5)cc34)cn2)CC1", "pIC50": "6.00 to 7.00"}
{"compound": "CNc1ncc(-c2cnn([C@H]3CC[C@H](O)CC3)c2)c2cc(-c3csc4cnccc34)oc12", "pIC50": "≥ 7.00"}
{"compound": "CC(=O)N1CCC(n2cc(-c3cnc(N)c4oc(-c5ccc6c(c5)C(=O)NC6)cc34)cn2)CC1", "pIC50": "< 5.00"}
{"compound": "CC(=O)N1CCC(n2cc(-c3cnc(N)c4oc(-c5csc6cncc(F)c56)cc34)cn2)CC1", "pIC50": "6.00 to 7.00"}
{"compound": "Nc1ncc(-c2cnn([C@H]3CC[C@H](O)CC3)c2)c2cc(-c3c(F)ccc4cnsc34)oc12", "pIC50": "6.00 to 7.00"}
{"compound": "Nc1ncc(-c2cnn(C3CCN(CCF)CC3)c2)c2cc(-c3cccc4cnccc34)oc12", "pIC50": "6.00 to 7.00"}
{"compound": "Nc1ncc(-c2cnn(C3CCNCC3)c2)c2cc(-c3cccc4cnsc34)oc12", "pIC50": "6.00 to 7.00"}
{"compound": "Nc1ncc(-c2cnn([C@H]3CC[C@H](O)CC3)c2)c2cc(-c3cncc4cnsc34)oc12", "pIC50": "6.00 to 7.00"}
{"compound": "CS(=O)(=O)CCN1CCC(n2cc(-c3cnc(N)c4oc(-c5cccc6cnccc56)cc34)cn2)CC1", "pIC50": "6.00 to 7.00"}
{"compound": "CC(=O)N1CCC(n2cc(-c3cnc(N)c4oc(-c5cccc6cnsc56)cc34)cn2)CC1", "pIC50": "≥ 7.00"}
{"compound": "CC(=O)N1CCC(n2cc(-c3cnc(N)c4oc(-c5ccc6occc6c5)cc34)cn2)CC1", "pIC50": "6.00 to 7.00"}
{"compound": "Cn1cc(-c2cnc(N)c3oc(-c4csc5cnccc45)cc23)cn1", "pIC50": "6.00 to 7.00"}
{"compound": "Nc1ncc(-c2cnn([C@H]3CC[C@H](O)CC3)c2)c2cc(-c3cccc4nnsc34)oc12", "pIC50": "≥ 7.00"}
{"compound": "Nc1ncc(-c2cnn(C3CCN(CC(F)(F)F)CC3)c2)c2cc(-c3cccc4cnccc34)oc12", "pIC50": "6.00 to 7.00"}
{"compound": "Nc1ncc(-c2cnn(C3CCNCC3)c2)c2cc(-c3csc4cnccc34)oc12", "pIC50": "6.00 to 7.00"}
{"compound": "CC(=O)N1CCC(n2cc(-c3cnc(N)c4oc(-c5cccn6ccnc56)cc34)cn2)CC1", "pIC50": "6.00 to 7.00"}
{"compound": "CCSc1ccccc1-c1cc2c(-c3cnn(C4CCN(C(C)=O)CC4)c3)cnc(N)c2o1", "pIC50": "6.00 to 7.00"}
{"compound": "Cn1cc(-c2cnc(N)c3oc(-c4cccc5cnccc45)cc23)cn1", "pIC50": "6.00 to 7.00"}
{"compound": "CC(=O)N1CCC(n2cc(-c3cnc(N)c4oc(-c5ccc6[nH]ccc6c5)cc34)cn2)CC1", "pIC50": "6.00 to 7.00"}
{"compound": "CC(=O)N1CCC(n2cc(-c3cnc(N)c4oc(-c5cccc6[nH]ccc56)cc34)cn2)CC1", "pIC50": "6.00 to 7.00"}
{"compound": "CC(=O)N1CCC(n2cc(-c3cnc(N)c4oc(-c5cccc6[nH]ncc56)cc34)cn2)CC1", "pIC50": "6.00 to 7.00"}
{"compound": "CC(=O)N1CCC(n2cc(-c3cnc(N)c4oc(-c5ccc6ncn(C)c6c5)cc34)cn2)CC1", "pIC50": "< 5.00"}
{"compound": "Nc1ncc(-c2cnn([C@H]3CC[C@H](O)CC3)c2)c2cc(-c3cccc4cnccc34)oc12", "pIC50": "6.00 to 7.00"}
{"compound": "CC(=O)N1CCC(n2cc(-c3cnc(N)c4oc(-c5cn[nH]c5)cc34)cn2)CC1", "pIC50": "< 5.00"}
{"compound": "CNc1ncc(-c2cnn(C3CCN(C(C)=O)CC3)c2)c2cc(-c3csc4cnccc34)oc12", "pIC50": "≥ 7.00"}
{"compound": "Nc1ncc(-c2cnn([C@H]3CC[C@H](O)CC3)c2)c2cc(-c3cc(F)cc4cnsc34)oc12", "pIC50": "6.00 to 7.00"}
{"compound": "CC(=O)N1CCC(n2cc(-c3cnc(N)c4oc(-c5cccc6nnsc56)cc34)cn2)CC1", "pIC50": "≥ 7.00"}
{"compound": "C[C@]1(O)CC[C@@H](n2cc(-c3cnc(N)c4oc(-c5cccc6cnccc56)cc34)cn2)CC1", "pIC50": "6.00 to 7.00"}
{"compound": "CC(C)n1cc(-c2cnc(N)c3oc(-c4c[nH]c5cnccc45)cc23)cn1", "pIC50": "≥ 7.00"}
{"compound": "CC(=O)N1CCC(n2cc(-c3cnc(N)c4oc(-c5ccc6[nH]nnc6c5)cc34)cn2)CC1", "pIC50": "< 5.00"}
{"compound": "COCCN1CCC(n2cc(-c3cnc(N)c4oc(-c5cccc6cnccc56)cc34)cn2)CC1", "pIC50": "6.00 to 7.00"}
{"compound": "CC(=O)N1CCC(n2cc(-c3cnc(N)c4oc(-c5cccc(O)c5)cc34)cn2)CC1", "pIC50": "6.00 to 7.00"}
{"compound": "CNc1ncc(-c2cnn(C3CCN(C(C)=O)CC3)c2)c2cc(-c3c[nH]c4cnccc34)oc12", "pIC50": "6.00 to 7.00"}
{"compound": "Nc1ncc(-c2cnn(C3CCNCC3)c2)c2cc(-c3cccc4cnccc34)oc12", "pIC50": "6.00 to 7.00"}
{"compound": "CC(C)n1cc(-c2cnc(N)c3oc(-c4cccc5cnccc45)cc23)cn1", "pIC50": "6.00 to 7.00"}
{"compound": "CN1CCC(n2cc(-c3cnc(N)c4oc(-c5cccc6cnccc56)cc34)cn2)CC1", "pIC50": "6.00 to 7.00"}
{"compound": "CC(=O)N1CC(n2cc(-c3cnc(N)c4oc(-c5csc6cnccc56)cc34)cn2)C1", "pIC50": "6.00 to 7.00"}
{"compound": "CC(=O)N1CCC(n2cc(-c3cnc(N)c4oc(-c5c[nH]c6cc(C#N)ccc56)cc34)cn2)CC1", "pIC50": "6.00 to 7.00"}
{"compound": "Cc1sc2cnccc2c1-c1cc2c(-c3cnn([C@H]4CC[C@H](O)CC4)c3)cnc(N)c2o1", "pIC50": "6.00 to 7.00"}
{"compound": "Nc1ncc(-c2cnn([C@H]3CC[C@H](O)CC3)c2)c2cc(-c3ccc(F)c4cnsc34)oc12", "pIC50": "6.00 to 7.00"}
{"compound": "CC(=O)N1CCC(n2cc(-c3cnc(N)c4oc(-c5cccc([N+](=O)[O-])c5C)cc34)cn2)CC1", "pIC50": "6.00 to 7.00"}
{"compound": "Nc1ncc(-c2cnn(C3CCNCC3)c2)c2cc(-c3ccc4[nH][nH]c(=O)c4c3)oc12", "pIC50": "< 5.00"}
{"compound": "Cn1cc(-c2cnc(N)c3oc(-c4c[nH]c5cnccc45)cc23)cn1", "pIC50": "6.00 to 7.00"}
{"compound": "CSc1ccccc1-c1cc2c(-c3cnn(C4CCN(C(C)=O)CC4)c3)cnc(N)c2o1", "pIC50": "6.00 to 7.00"}
{"compound": "COCC(=O)N1CCC(n2cc(-c3cnc(N)c4oc(-c5cccc6cnccc56)cc34)cn2)CC1", "pIC50": "6.00 to 7.00"}
{"compound": "CC(C)C(=O)N1CCC(n2cc(-c3cnc(N)c4oc(-c5cccc6cnccc56)cc34)cn2)CC1", "pIC50": "≥ 7.00"}
{"compound": "Nc1ncc(-c2cnn([C@H]3CC[C@H](O)CC3)c2)c2cc(-c3cccc4cnsc34)oc12", "pIC50": "6.00 to 7.00"}
{"compound": "CC(=O)N1CCC(n2cc(-c3cnc(N)c4oc(-c5csc6ccccc56)cc34)cn2)CC1", "pIC50": "6.00 to 7.00"}
{"compound": "Nc1ncc(-c2cn[nH]c2)c2cc(-c3cccc4cnccc34)oc12", "pIC50": "6.00 to 7.00"}
{"compound": "CC(=O)N1CCC(n2cc(-c3cnc(N)c4oc(-c5ccc6c(c5)CNC6=O)cc34)cn2)CC1", "pIC50": "< 5.00"}
{"compound": "Nc1ncc(-c2cnn([C@@H]3C[C@@H](O)[C@@H](O)C3)c2)c2cc(-c3csc4cnccc34)oc12", "pIC50": "6.00 to 7.00"}
{"compound": "CC(=O)N1CCC(n2cc(-c3cnc(N)c4oc(-c5ccc6sccc6c5)cc34)cn2)CC1", "pIC50": "6.00 to 7.00"}
{"compound": "CC(=O)N1CCC(n2cc(-c3cnc(N)c4oc(-c5cncc6cnsc56)cc34)cn2)CC1", "pIC50": "6.00 to 7.00"}
{"compound": "CC(C)(C)OC(=O)N1CCC(n2cc(-c3cnc(N)c4oc(-c5csc6cnccc56)cc34)cn2)CC1", "pIC50": "6.00 to 7.00"}
{"compound": "CC(=O)N1CCC(n2cc(-c3cnc(N)c4oc(-c5c[nH]c6cc(F)ccc56)cc34)cn2)CC1", "pIC50": "6.00 to 7.00"}
{"compound": "CC(=O)N1CCC(n2cc(-c3cnc(N)c4oc(-c5ccc(S(C)(=O)=O)cc5)cc34)cn2)CC1", "pIC50": "< 5.00"}
{"compound": "Nc1ncc(-c2cnn(C3CCNCC3)c2)c2cc(-c3ccc4[nH]ncc4c3)oc12", "pIC50": "6.00 to 7.00"}
{"compound": "CC(=O)N1CCC(n2cc(-c3cnc(N)c4oc(-c5ccc(O)cc5)cc34)cn2)CC1", "pIC50": "6.00 to 7.00"}
